Marks after values point to notes of the source that are not given here.
What was measured:
[1] = tested on: whrithing by phenylquinone; test: Analgesic activity, writhing by phenylquinone (method of Siegmund); format: in vivo; conditions: mice
carrageenin edema = test: Antiinflammatory activity, carrageenin edema test (method of Winter); format: in vivo; conditions: rat; for % INHIBITION / EDEMA VOLUME Final value: 50 mg/kg oral 30 minutes before carrageenin, measured 3 hours after induction; for EDEMA VOLUME Basal value: 50 mg/kg oral
Method: The antiinflammatory activity of MR 549 has been assessed by the carrageenin edema test in the rat according to the method of Winter et al. (Proc. Soc. Exp. Biol. Med., 1962, III, 544).
The product under exam and indomethaoin at equiponderant doses have been administered by the oral route 30 minutes before of the subplantar carragee ning injection; pletismographic measures of the edemas have been performed 3 hours after they had been induced.

[2] = Acute toxicity after single administration, mouse; format: in vivo; conditions: in vivo, mouse, single administration
Description: (§1) The toxicity after single administrations of MR 549 has been studied in mice and rats by the oral and intraperitoneal routes.
(§2) The LD50 values have been calculated according to the method of Litchfield and Wilooxon (J. Pharm. Exp. Therap., 1949, 96, 99).

mouse = test: Acute toxicity after single administration, mouse; format: in vivo; conditions: mice and rats, oral and intraperitoneal routes
Description: as §1, §2

motor activity = test: Spontaneous motor activity; format: in vivo; conditions: Swiss mouse, 50 mg/kg i.p.
Method: The effect of MR 549 on the motor activity has been studied in the Swiss mouse, by placing two groups of animals in a box connected with a recorder detec ting spontaneous motility. On the basis of movemen- ts/minute recorded, MR 549 at the dose of 50 mg/kg i.p. has been administered to one group and the ac tivity has been recorded during the 2 hours following treatment; the second group, treated with the solvent alone, has been used as control group.

gastric mucosa [3] = conditions: rat, in vivo, po
Method: (§3) Male rats of S-D strain, weighing 180-200 g and fasting for 48 hours with free access to water, have been used. The product under exam have been administered by intraperitoneal routes : twice (after 24 and 31 hours from the beginning of the fasting period) at the single dose of 100 mg/kg; or three times by oral route (9.24 and 31 hours after the beginning of the fasting period) at the single dose of 150 mg/kg.

[4] = Acute toxicity after single administration, rat; conditions: in vivo
Description: as §1, §2

gastric mucosa [5] = test: Gastric tolerability (method of Pisanti and Volterra); conditions: fasting rats, 12 animals
Method: as §3

[6] = 50 mg/kg os, 30 minutes before phenylquinone injection

**Q.** For `CC(=O)Oc1ccccc1C(=O)O` [ACETYL-SALICYLIC ACID, acetylsalicylic acid, reference compound], which “% INHIBITION IN COMPARISON WITH CONTROLS” value ([1]; 100 mg/kg os) is on record?
**A.** 79.6%

**Q.** And the “N° CONTORSIONS X̄ ± e.s.” value ([1]; 100 mg/kg os)?
**A.** 3.9 ± 1.93

**Q.** What about the “N° WHRITHING ANIMALS/TOTAL N&” value ([1]; 100 mg/kg os) of the same molecule?
**A.** 12/20

**Q.** With `COc1ccc2c(c1)c(CC(=O)O)c(C)n2C(=O)c1ccc(Cl)cc1` [INDO-METHACINE, indomethacin, reference compound] as the molecule, how does the “% INHIBITION” value (carrageenin edema) read?
**A.** 53.2%

**Q.** What about the “EDEMA VOLUME Final value” (carrageenin edema) of the same molecule?
**A.** 29.6

**Q.** And the “EDEMA VOLUME Basal value” (carrageenin edema)?
**A.** 22.5

**Q.** For `Cc1cccnc1NC(=O)C1(c2ccccc2)CCCC1` [MR 549, 2-[(1-phenyl)cyclopentyl-carbonyl]-amino-3-methylpyridine], which “% INHIBITION” value (carrageenin edema) is on record?
**A.** 38.1%

**Q.** What about the “EDEMA VOLUME Final value” (carrageenin edema) of the same molecule?
**A.** 31.8

**Q.** And the “EDEMA VOLUME Basal value” (carrageenin edema)?
**A.** 22.6

**Q.** What about the LD50 ([2]; ip) of the same molecule?
**A.** 300 mg/kg

**Q.** And the LD50 ([2]; po, os)?
**A.** 550 mg/kg

**Q.** And the “acute toxicity (verbal summary)” value (mouse)?
**A.** very low acute toxicity

**Q.** And the “N° recorded movements/min.” value (motor activity; 15')?
**A.** 42 movements/min.

**Q.** What about the “N° recorded movements/min.” value (motor activity; 30') of the same molecule?
**A.** 52 movements/min.

**Q.** And the “N° recorded movements/min.” value (motor activity; 60')?
**A.** 39 movements/min.

**Q.** What about the “N° recorded movements/min.” value (motor activity; 90') of the same molecule?
**A.** 52 movements/min.

**Q.** And the “N° recorded movements/min.” value (motor activity; Time: 0)?
**A.** 45 movements/min.

**Q.** And the “% INHIBITION IN COMPARISON WITH CONTROLS” value [1, 6]?
**A.** 63.9%

**Q.** And the “N° CONTORSIONS X̄ ± e.s.” value [1, 6]?
**A.** 6.9 ± 2.24

**Q.** What about the “N° WHRITHING ANIMALS/TOTAL N&” value [1, 6] of the same molecule?
**A.** 14/20

**Q.** What about the “gastrolesive action (verbal summary)” value (gastric mucosa [3]) of the same molecule?
**A.** clearly lower than phenylbutazone

**Q.** And the LD50 ([4]; ip)?
**A.** 600 mg/kg

**Q.** And the LD50 ([4]; po, os)?
**A.** 1100 mg/kg

**Q.** Which results are given for `CCCCC1C(=O)N(c2ccccc2)N(c2ccccc2)C1=O` [Phenylbu-tazone, phenylbutazone]?
**A.** % ANIMALS WITH ULCERS (gastric mucosa [5]; 100 mg X 2 i.p.): 83.30%; N° ANIMALS WITH ULCERS (gastric mucosa [5]; 100 mg X 2 i.p.): 10*; animals died during treatment (gastric mucosa [5]; 100 mg X 2 i.p.): * an animal died during treatment; % ANIMALS WITH ULCERS (gastric mucosa [5]; 150 mg X 3 os): 91.67%; N° ANIMALS WITH ULCERS (gastric mucosa [5]; 150 mg X 3 os): 11**; animals died during treatment (gastric mucosa [5]; 150 mg X 3 os): ** two animals died during treatment.
